{"source": "patent US6784165B1", "about": "“Treatment of heart rhythm disturbances with N6-substituted-5′-(N-substituted) carboxamidoadenosines” (Aderis Pharmaceuticals, Inc., priority 1999, dated 2004)", "key": {"adenosine A1 receptor [1]": {"tested_on": "adenosine A1 receptor", "experiment": "Rat isolated Langendorff heart paced at 360 bpm: AV conduction (S-V interval) and coronary blood flow", "settings": "at 6.8 nM and 8.3 nM, rat isolated heart", "method": "Rat isolated hearts were prepared according to the method of Langendorff in which the coronary vasculature was perfused in a retrograde fashion at constant pressure via the aorta. Coronary blood flow was determined by measuring the volume of fluid leaving the heart. Heart rate was maintained at 360 beats per minute by electrical pacing of the right atrium. Atrioventricular (AV) conduction was determined as the time from the atrial stimulus to the beginning of ventricular depolarization (S-V interval)."}, "conscious rats": {"tested_on": "conscious rats", "experiment": "Heart rate and blood pressure in conscious unrestrained rats (intravenous or oral)", "type": "in vivo, rat", "method": "(§1) Male Sprague-Dawley rats were anesthetized with sodium pentobarbital 50 mg/kg i.p., and indwelling catheters were surgically implanted in the carotid artery and jugular vein two days prior to each experiment. During all subsequent experiments, rats were conscious and unrestrained. The carotid artery cannula was attached to a pressure transducer and blood pressure was recorded continuously throughout each experiment using a Grass polygraph. Heart rate was derived from the blood pressure signal using a Grass tachygraph. The measured parameters were allowed from 30 to 90 minutes to stabilize before the administration of test compound.\nCompound A was administered by intravenous administration via the jugular vein indwelling catheter or by oral gavage using a curved, bulbed oral dosing cannula. Food and water were available ad libitum."}, "[2]": {"tested_on": "guinea pig isolated heart", "experiment": "Guinea pig isolated heart paced at 300-360 bpm: AV conduction interval versus coronary perfusate flow", "method": "Guinea pig isolated hearts were prepared according to the methods described in Example 5. In the first portion of the experiment designed to determine the effect of heart rate on the negative dromotropic activity of Compound A, hearts were allowed to beat spontaneously or electrically paced either at 200 beats per minute (approximately 20% above the spontaneous rate) or at 300-360 beats per minute (approximately 80% above the spontaneous rate). Atrioventricular (AV) conduction interval (AV interval) was determined as the time from the atrial stimulus to the beginning of ventricular depolarization. The AV interval measurements were performed at each pacing rate with increased concentrations of Compound A as described in Example 5. Upon electrical pacing at 200 beats per minute, Compound A at a mean concentration of 3.9 nM produced a mean maximal 58% increase in AV interval, and heart block at a mean minimal concentration of 5.1 nM. […] The results are summarized in the table below, with data from spontaneously beating hearts included for comparative purposes:\nIn order to determine the differential potencies of Compound A for negative […] activity versus coronary vasodilation in paced hearts, a different set of experiments was conducted in which individual hearts were used to collect measurements for each action. Experimental conditions as described in Example 6 were used, with guinea pig isolated hearts being paced at 300-360 beats per minute. AV conduction interval was determined as described in Example 6. Coronary perfusate flow data was determined by measuring the volume of fluid leaving the heart. AV conduction interval data and coronary perfusate flow data were collected in the presence of increasing concentrations of Compound A. The results are shown in FIG. 3, with dose-related increases for both AV conduction interval and coronary perfusate flow. The differential for these effects is readily apparent. The mean concentration of Compound A that produced a maximal increase in AV conduction time was 0.76 nM."}, "adenosine A1 receptor [3]": {"biological_target": "T1, adenosine A1 receptor (Rattus norvegicus, UniProt P25099)", "T1 sequence (P25099 1-326)": "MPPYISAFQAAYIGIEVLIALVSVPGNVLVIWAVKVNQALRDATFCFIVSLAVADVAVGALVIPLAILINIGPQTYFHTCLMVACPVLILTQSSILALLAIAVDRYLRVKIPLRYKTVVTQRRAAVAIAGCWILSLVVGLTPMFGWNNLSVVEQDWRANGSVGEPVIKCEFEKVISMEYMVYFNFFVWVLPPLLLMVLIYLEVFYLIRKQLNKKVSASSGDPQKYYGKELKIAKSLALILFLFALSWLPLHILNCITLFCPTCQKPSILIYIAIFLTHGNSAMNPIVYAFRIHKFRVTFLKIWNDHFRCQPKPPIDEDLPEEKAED", "experiment": "Peak bradycardia after bolus intravenous injection in conscious rats", "type": "in vivo", "set-up": "from tissue; host or cells: whole animal (conscious Sprague-Dawley rats)", "settings": "rat, bolus intravenous injections, read-out: ED50", "description": "Concentration dose-effect curve data were fitted to a sigmoid curve using Graphpad PRIZM™ software to obtain the concentration or dose of test compound that produces 50% of the maximal obtainable response, in vitro EC50 or in vivo ED50 values, for activation of the adenosine A1 receptor. Responses measured to each dose were the plateau negative inotropic response to cumulative additions of test compound in the isolated left atria and the peak bradycardia in response to bolus intravenous injections of test compound in conscious rats. Oral bioavailability was estimated from pharmacodynamic responses using the expression: (Response AUCoral/Response AUCiv)(Doseiv/Doseoral), where Response AUC is the area under the curve for test compound-induced bradycardia over time.\nas §1\nTest compounds were administered either by oral gavage using a curved, bulbed oral dosing cannula, or by intravenous administration via the jugular vein indwelling catheter. Rats dosed orally were fasted overnight before dosing, with water available ad libitum. Because the heart rate responses following intravenous administration of test compound rapidly returned to baseline, more than one dose of test compound could be administered to each rat. However, the responses to oral administration of test compounds were of a prolonged duration and therefore only a single dose could be administered to each rat."}, "[4]": {"settings": "0.1 μg/kg/min intravenously for 120 minutes"}, "[5]": {"settings": "paced at 300-360 beats per minute"}}}
{"smiles": "CCNC(=O)[C@H]1O[C@@H](n2cnc3c(NC4CCCC4)ncnc32)[C@H](O)[C@@H]1O", "note": "[Compound A, ethyl N^6-cyclopentyladenosine-5′-uronamide]", "values": [{"measurement": "effect on coronary blood flow", "setting": "adenosine A1 receptor [1]", "value": "no effect"}, {"measurement": "mean blood pressure", "setting": "conscious rats; [4]", "value": "remained unchanged"}, {"measurement": "mean decrease in heart rate", "setting": "conscious rats; [4]", "value": 34, "unit": "%"}, {"measurement": "mean decrease in heart rate", "setting": "conscious rats; 100 μg/kg oral", "value": 40, "unit": "%"}, {"measurement": "change in blood pressure", "setting": "conscious rats; intravenous dose range 0.05 μg/kg/min to 0.1 μg/kg/min", "value": "no change"}, {"measurement": "ED50 for induction of bradycardia", "setting": "conscious rats; intravenously for 120 minutes, conscious rats", "value": 0.1, "unit": "µg/kg/min"}, {"measurement": "change in blood pressure", "setting": "conscious rats; oral dose range 30 μg/kg to 100 μg/kg", "value": "no change"}, {"measurement": "EC50", "setting": "[2]; Cavia porcellus, paced at 300-360 beats per minute, read-out: EC50 for increase in coronary perfusate flow", "value": 32, "unit": "nM"}, {"measurement": "mean coronary perfusate flow rate reached", "setting": "[2]; increase from a mean flow rate of 8.5 mL/min, paced at 300-360 bpm", "value": 14.2, "unit": "mL/min"}, {"measurement": "mean concentration producing heart block", "setting": "[2]; [5]", "value": 1.09, "unit": "nM"}, {"measurement": "mean concentration that produced a maximal increase in AV conduction time", "setting": "[2]; [5]", "value": 0.76, "unit": "nM"}, {"measurement": "potency at slowing AV conduction versus increasing coronary perfusate flow", "setting": "[2]; [5]", "value": "greater than 40 fold"}, {"measurement": "mean maximal increase in AV interval", "setting": "[2]; paced at 300-360 beats per minute, at 0.76 nM", "value": 23, "unit": "%"}, {"measurement": "ED50", "setting": "adenosine A1 receptor [3]", "value": 0.0083, "unit": "µmol/kg"}]}
